Experimental data reported in ChEMBL document CHEMBL3526141, “Characterization of human liver enzymes involved in the biotransformation of boceprevir, a hepatitis C virus protease inhibitor” (Drug Metab Dispos, 2011).

Assays:
Liver cytosol [1] = assay: Ratio of Vmax to Km for drug metabolism in human liver cytosol assessed as (1R,2S,5S)-N-((2R,3R)-4-amino-1-cyclobutyl-3-hydroxy-4-oxobutan-2-yl)-3-((S)-2-(3-tert-butylureido)-3,3-dimethylbutanoyl)-6,6-dimethyl-3-azabicyclo[3.1.0]hexane-2-carboxamide formation per mg protein after 60 mins by LC-MS/MS/FSA method; type: ADME; conditions: 1 h
Liver cytosol [2] = assay: Drug metabolism in human liver cytosol at 20 uM assessed as (1R,2S,5S)-N-((2R,3R)-4-amino-1-cyclobutyl-3-hydroxy-4-oxobutan-2-yl)-3-((S)-2-(3-tert-butylureido)-3,3-dimethylbutanoyl)-6,6-dimethyl-3-azabicyclo[3.1.0]hexane-2-carboxamide formation in presence of flufenamic acid by LC-MS/MS/FSA method; type: ADME
Liver cytosol [3] = assay: Drug metabolism in human liver cytosol treated with 20 uM [14C]SCH 534128 assessed as 100 uM diazepam-mediated inhibition of metabolite formation LC-MS/MS/FSA method; type: ADME, tissue-based; parameters: interact cpd dose 100 uM
[4] = molecular target: T1, Aldo-keto reductase family 1 member C2 (Homo sapiens, UniProt P52895); assay: Drug metabolism in human recombinant AKR1C2 expressing HEK293 cells treated with 20 uM boceprevir assessed as 1 mM BNPP-mediated inhibition of AKR1C2-mediated metabolite formation after 120 mins in presence of NADPH by LC-MS/MS/FSA method; type: ADME, cell-based; parameters: interact cpd dose 1 mM; conditions: hek293, 2 h
T1 sequence (P52895 whole entry): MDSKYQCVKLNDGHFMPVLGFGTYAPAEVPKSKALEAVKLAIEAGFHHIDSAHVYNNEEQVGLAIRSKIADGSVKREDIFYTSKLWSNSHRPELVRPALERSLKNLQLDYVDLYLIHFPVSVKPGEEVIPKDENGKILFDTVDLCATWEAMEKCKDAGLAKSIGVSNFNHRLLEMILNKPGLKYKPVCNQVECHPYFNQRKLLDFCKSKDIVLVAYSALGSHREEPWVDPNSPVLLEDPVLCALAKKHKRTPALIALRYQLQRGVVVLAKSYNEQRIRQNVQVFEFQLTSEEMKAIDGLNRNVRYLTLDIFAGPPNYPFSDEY

[5] = molecular target: T2, Aldo-keto reductase family 1 member C3 (Homo sapiens, UniProt P42330); assay: Drug metabolism in human recombinant […] HEK293 cells treated with 20 uM boceprevir assessed as 100 uM diazepam-mediated inhibition of AKR1C3-mediated metabolite formation after 120 mins in presence of NADPH by LC-MS/MS/FSA method; type: ADME, cell-based; parameters: interact cpd dose 100 uM; conditions: hek293, 2 h
T2 sequence (P42330 whole entry): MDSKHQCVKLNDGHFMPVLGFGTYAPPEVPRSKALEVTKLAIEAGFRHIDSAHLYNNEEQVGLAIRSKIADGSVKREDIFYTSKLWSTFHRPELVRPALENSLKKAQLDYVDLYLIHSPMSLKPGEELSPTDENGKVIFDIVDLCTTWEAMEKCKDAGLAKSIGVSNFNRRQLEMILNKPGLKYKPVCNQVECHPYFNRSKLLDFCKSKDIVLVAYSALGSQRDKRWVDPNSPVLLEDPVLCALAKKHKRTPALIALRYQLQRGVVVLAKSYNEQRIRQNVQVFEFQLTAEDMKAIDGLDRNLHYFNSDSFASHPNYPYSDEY

[6] = molecular target: T2, Aldo-keto reductase family 1 member C3; assay: Drug metabolism in human recombinant […] HEK293 cells treated with 20 uM boceprevir assessed as 100 uM flufenamic acid-mediated inhibition of AKR1C3-mediated metabolite formation after 120 mins in presence of NADPH by LC-MS/MS/FSA method; type: ADME, cell-based; parameters: interact cpd dose 100 uM; conditions: hek293, 2 h
Cytochrome P450 2J2 = molecular target: T3, Cytochrome P450 2J2 (Homo sapiens, UniProt P51589); assay: Drug metabolism assessed as human CYP2J2-mediated compound formation from 5 to 20 uM [14C]boceprevir after 120 mins by LC-MS/FSA method relative to total [14C]boceprevir; type: ADME; conditions: recombinant enzyme, 2 h
T3 sequence (P51589 whole entry): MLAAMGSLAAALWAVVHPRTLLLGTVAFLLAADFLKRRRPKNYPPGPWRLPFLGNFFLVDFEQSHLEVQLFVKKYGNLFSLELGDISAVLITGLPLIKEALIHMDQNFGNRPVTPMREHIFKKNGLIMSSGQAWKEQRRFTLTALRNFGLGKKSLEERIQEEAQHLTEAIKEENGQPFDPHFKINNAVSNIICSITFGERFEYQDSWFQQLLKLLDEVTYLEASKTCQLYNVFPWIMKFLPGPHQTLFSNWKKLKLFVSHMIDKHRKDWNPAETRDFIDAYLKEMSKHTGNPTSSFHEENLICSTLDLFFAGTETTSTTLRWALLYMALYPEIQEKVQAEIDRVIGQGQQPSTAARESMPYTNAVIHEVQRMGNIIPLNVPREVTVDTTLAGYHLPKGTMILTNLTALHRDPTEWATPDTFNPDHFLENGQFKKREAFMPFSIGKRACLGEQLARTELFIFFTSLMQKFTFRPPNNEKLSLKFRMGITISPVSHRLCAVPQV

[7] = Drug excretion in human feces assessed as carbonyl reduction pathway related metabolites level; type: ADME; parameters: dosed compound name [14C]boceprevir
Liver cytosol [8] = assay: (§1) Drug metabolism in human liver cytosol at 20 uM assessed as (1R,2S,5S)-N-((2S,3R)-4-amino-1-cyclobutyl-3-hydroxy-4-oxobutan-2-yl)-3-((S)-2-(3-tert-butylureido)-3,3-dimethylbutanoyl)-6,6-dimethyl-3-azabicyclo[3.1.0]hexane-2-carboxamide formation in presence of flufenamic acid by LC-MS/MS/FSA method; type: ADME
Liver cytosol [9] = assay: (§2) Drug metabolism in human liver cytosol at 20 uM assessed as (1R,2S,5S)-N-((2S,3R)-4-amino-1-cyclobutyl-3-hydroxy-4-oxobutan-2-yl)-3-((S)-2-(3-tert-butylureido)-3,3-dimethylbutanoyl)-6,6-dimethyl-3-azabicyclo[3.1.0]hexane-2-carboxamide formation in presence of menadione by LC-MS/MS/FSA method; type: ADME
Liver cytosol [10] = assay: as §2, with “formation at 20 uM after 60 mins” for “formation”, “AKR inhibitor ibuprofen” for “menadione”; type: ADME; conditions: 1 h
Liver cytosol [11] = assay: Drug metabolism in human liver cytosol at 20 uM assessed as (1R,2S,5S)-N-((2S,3R)-4-amino-1-cyclobutyl-3-hydroxy-4-oxobutan-2-yl)-3-((S)-2-(3-tert-butylureido)-3,3-dimethylbutanoyl)-6,6-dimethyl-3-azabicyclo[3.1.0]hexane-2-carboxamide formation in presence of phenolphthalein by LC-MS/MS/FSA method; type: ADME
[12] = Drug excretion in human feces; type: ADME; parameters: dosed compound name [14C]boceprevir
[13] = as §1, with “S9 fraction” for “cytosol”, “mefenamic” for “flufenamic”; type: ADME, subcellular; conditions: s9, 20 µM
Liver cytosol [14] = assay: as §2, with “formation at 20 uM after 60 mins” for “formation”, “AKR inhibitor diazepam” for “menadione”; type: ADME; conditions: 1 h
Liver cytosol [15] = assay: as §2, with “formation at 20 uM after 60 mins” for “formation”, “co-incubation with ritonavir” for “menadione”; type: ADME; conditions: 1 h

**Q.** For `CC(C)(C)NC(=O)N[C@H](C(=O)N1C[C@H]2[C@@H]([C@H]1C(=O)N[C@H](CC1CCC1)C(=O)C(N)=O)C2(C)C)C(C)(C)C`, which Vmax/Km (Liver cytosol [1]) is on record?
**A.** Its Vmax/Km is 30.9 µL/min.

**Q.** What about the Compound recovery (Liver cytosol [2]) of the same compound?
**A.** Its Compound recovery is “metabolite_not_detected”.

**Q.** Which “inhibition (INH)” value (Liver cytosol [3]) does the source give for `CC(C)(C)NC(=O)N[C@H](C(=O)N1C[C@H]2[C@@H]([C@H]1C(=O)N[C@@H](CC1CCC1)[C@@H](O)C(N)=O)C2(C)C)C(C)(C)C` here?
**A.** Its value is 72.9%.

**Q.** And the “inhibition (INH)” value [4]?
**A.** Its value is 82%.

**Q.** And the “inhibition (INH)” value [5]?
**A.** Its value is 80%.

**Q.** What about the “inhibition (INH)” value [6] of the same compound?
**A.** The value was 93%.

**Q.** For `CC(C)(C)NC(=O)N[C@H](C(=O)N1C[C@H]2[C@@H]([C@H]1C(=O)NC(CC1CCC1)C(=O)C(N)=O)C2(C)C)C(C)(C)C` (stereo partly specified) [BOCEPREVIR], which Compound recovery (Cytochrome P450 2J2) is on record?
**A.** The Compound recovery was “metabolite_not_detected”.

**Q.** What about the Radiolabel recovery [7] of the same compound?
**A.** Its Radiolabel recovery is 22%.

**Q.** What about the Compound recovery (Liver cytosol [8]) of the same compound?
**A.** The Compound recovery was “metabolite_not_detected”.

**Q.** What about the Compound recovery (Liver cytosol [9]) of the same compound?
**A.** The Compound recovery was “metabolite_not_detected”.

**Q.** And the Compound recovery (Liver cytosol [10])?
**A.** The Compound recovery was “metabolite_not_detected”.

**Q.** What about the Compound recovery (Liver cytosol [11]) of the same compound?
**A.** The Compound recovery was “metabolite_not_detected”.

**Q.** And the Radiolabel recovery [12]?
**A.** Its Radiolabel recovery is 79%.

**Q.** And the Compound recovery [13]?
**A.** The Compound recovery was “metabolite_not_detected”.

**Q.** And the Compound recovery (Liver cytosol [14])?
**A.** Its Compound recovery is “metabolite_not_detected”.

**Q.** And the Compound recovery (Liver cytosol [15])?
**A.** Its Compound recovery is “metabolite_detected”.
